This is an account of results in patent publication US12257050B2, “Calibration free in-vivo measurement of analytes using electrochemical sensors” (THE REGENTS OF THE UNIVERSITY OF CALIFORNIA, priority 2017, dated 2025).

For the series the following is noted: rat, in vivo, iv, 30 mg/kg. From the text:
The drift-resistance of chronoamperometrically-interrogated E-AB sensors is sufficient to support continuous, real-time measurements directly in situ in the blood of live animals. Aminoglycoside-binding E-AB were fabricated sensors on 75 μm-diameter gold micro-wires, encased in 22-gauge catheters for structural support, and deployed directly in the jugular veins of live rats (FIG. 6A). The plasma pharmacokinetics of the antibiotic tobramycin were monitored following an intravenous administration of 30 mg/kg by performing continuous chronoamperometric measurements for a total of two hours (FIG. 6B). Continuous measurements were achieved by pulsing the potential of the E-AB sensors serially between −0.1 V and −0.3 V, holding each pulse with a duration of only 100 ms. Then, non-linear regression analysis was performed of the current transients generated at −0.3 V to extract current decay lifetimes in real time, and these lifetimes were converted to concentration using the previously determined Langmuir isotherm (FIG. 6C). […]
The sub-second time resolution of chronoamperometrically interrogated E-AB sensors measurement of drug pharmacokinetics with unprecedented precision. The distribution, α, and elimination, β, lifetimes of tobramycin were determined by fitting the in vivo data to a two-compartment pharmacokinetic model. […]

SMILES strings stand for the structures.

On to `NC[C@H]1O[C@H](O[C@H]2[C@H](O)[C@@H](O[C@H]3O[C@H](CO)[C@@H](O)[C@H](N)[C@H]3O)[C@H](N)C[C@@H]2N)[C@H](N)C[C@@H]1O` [tobramycin], for which the “distribution lifetime α (first-order time constant of drug distribution)” value was determined as 3.74 ± 0.04 min and the “elimination lifetime β (elimination time constant)” value was found to be 69 ± 2 min.
